Patent US6489098B1, “Means and methods for monitoring nucleoside reverse transcriptase inhibitor antiretroviral therapy and guiding therapeutic decisions in the treatment of HIV/AIDS” (ViroLogic, Inc., priority 1998, dated 2002)
Several values for one entry are separate records, joined by “and”; a condition that tells them apart may be missing. Identical values can stand only once. Entries after “also recorded” stand apart in the source; their conditions may differ.

How the values were obtained:
[1] = test system: HIV isolates of 13 ZDV-naive patients; settings: 13 ZDV-naive patients followed for 18 to 22 months on d4T; d4T maximum; ZDV five patients; ddI three subjects; cited from earlier work
[2] = test system: patient RTV-757, RTV-844, RTV-937, RTV-964 and RTV-966 (4 or more AZT resistance mutations); experiment: Phenotypic susceptibility assay, patient isolates with AZT resistance-associated mutations; format: cell-based, HIV-1
Description: In these experiments patient-derived segment(s) corresponding to the HIV protease and reverse transcriptase coding regions were either patient-derived segments amplified by the reverse transcription-polymerase chain reaction method (RT-PCR) using viral RNA isolated from viral particles present in the serum of HIV-infected individuals or were mutants of wild type HIV-1 made by site directed mutagenesis of a parental clone of resistance test vector DNA. Isolation of viral RNA was performed using standard procedures (e.g. RNAgents Total RNA Isolation System, Promega, Madison Wis. or RNAzol, Tel-Test, Friendswood, Tex.). The RT-PCR protocol was divided into two steps. A retroviral reverse transcriptase [e.g. Moloney MuLV reverse transcriptase (Roche Molecular Systems, Inc., Branchburg, N.J.), or avian myeloblastosis virus (AMV) reverse transcriptase, (Boehringer Mannheim, Indianapolis, Ind.)] was used to copy viral RNA into cDNA. […]
Resistance tests were carried out with resistance test vectors using two host cell types. […] The resistance test vector viral particles were then used to infect a second host cell (the target host cell) in which the expression of the indicator gene is measured. […]

[3] = test system: HIV-1 RT mutant resistance test vector M41L-T69SSA-T215Y-L210W-RTV; experiment: Phenotypic susceptibility assay, site directed RTV M41L+T69SSA+L210W+T215Y; format: cell-based; settings: L210W introduced with M41L+T69SSA+T215Y
Description: (§1) Resistance tests were carried out with resistance test vectors using two host cell types. Resistance test vector viral particles were produced by a first host cell (the resistance test vector host cell) that was prepared by transfecting a packaging host cell with the resistance test vector and the packaging expression vector. The resistance test vector viral particles were then used to infect a second host cell (the target host cell) in which the expression of the indicator gene is measured.
(§2) The resistance test vectors containing a functional luciferase gene cassette were constructed and host cells were transfected with the resistance test vector DNA. The resistant test vectors contained patient-derived reverse transcriptase and protease sequences that were either susceptible or resistant to the antiretroviral agents, such as nucleoside reverse transcriptase inhibitors, non-nucleoside reverse transcriptase inhibitors and protease inhibitors. The resistance test vector viral particles produced by transfecting the resistance test vector DNA into host cells, either in the presence or absence of protease inhibitors, were used to infect target host cells grown either in the absence of NRTI or NNRTI or In the presence of increasing concentrations of the drug. The amount of luciferase activIty produced in infected target host cells in the presence of drug was compared to the amount of luciferase produced in infected target host cells in the absence of drug. […] The IC50 values were determined by plotting percent drug inhibition vs. log 10 drug concentration.
(§3) Host cells were seeded in 10-cm-diameter dishes and were transfected several days after plating with resistance test vector plasmid DNA and the envelope expression vector. […] HIV capsid protein (p24) levels in the harvested cell culture media were determined by an EIA method as described by the manufacturer (SIAC; Frederick, Md.). […] The inhibitory effect of the drug was determined using the following equation: […]

[4] = test system: HIV-1 RT mutant resistance test vector M41L-A62V-T69SSA-T215Y-L210W-RTV; experiment: Phenotypic susceptibility assay, site directed RTV M41L+A62V+T69SSA+L210W+T215Y; format: cell-based; settings: RTV with 41 + 62 + 69 + 210 + 215; 3 replicates
Description: as §1, §2, §3

Cc1cn([C@H]2C=C[C@@H](CO)O2)c(=O)[nH]c1=O [d4T, stavudine]
fold decrease in sensitivity [1]: ≤ 12 fold
fold reduced susceptibility ([2]; four patient viruses with 4 or more AZT resistance mutations (FIG. 6)): 3-6 fold
susceptibility compared to wild-type control RTV ([2]; patient RTV pools with multiple AZT-resistance mutations): decrease in susceptibility to d4T; also recorded: significant decreases in susceptibility to d4T

Cc1cn([C@H]2C[C@H](N=[N+]=[N-])[C@@H](CO)O2)c(=O)[nH]c1=O [AZT, zidovudine]
effect on susceptibility (words) [3]: substantial decrease in susceptibility to AZT

Nc1ccn([C@H]2CC[C@@H](CO)O2)c(=O)n1 [ddC, zalcitabine]
Average fold reduction in susceptibility [4]: 2.1 fold and 2.10 fold
